Laboratory results published in ChEMBL document CHEMBL1201862, “PubChem BioAssay data set” (2004).
One block for each compound: values may come before it. Activity calls are given as the source filed them.

What was measured:
Protein skinhead-1 = molecular target: T1, Protein skinhead-1 (Caenorhabditis elegans, UniProt P34707); type: functional
T1 sequence (P34707 whole entry): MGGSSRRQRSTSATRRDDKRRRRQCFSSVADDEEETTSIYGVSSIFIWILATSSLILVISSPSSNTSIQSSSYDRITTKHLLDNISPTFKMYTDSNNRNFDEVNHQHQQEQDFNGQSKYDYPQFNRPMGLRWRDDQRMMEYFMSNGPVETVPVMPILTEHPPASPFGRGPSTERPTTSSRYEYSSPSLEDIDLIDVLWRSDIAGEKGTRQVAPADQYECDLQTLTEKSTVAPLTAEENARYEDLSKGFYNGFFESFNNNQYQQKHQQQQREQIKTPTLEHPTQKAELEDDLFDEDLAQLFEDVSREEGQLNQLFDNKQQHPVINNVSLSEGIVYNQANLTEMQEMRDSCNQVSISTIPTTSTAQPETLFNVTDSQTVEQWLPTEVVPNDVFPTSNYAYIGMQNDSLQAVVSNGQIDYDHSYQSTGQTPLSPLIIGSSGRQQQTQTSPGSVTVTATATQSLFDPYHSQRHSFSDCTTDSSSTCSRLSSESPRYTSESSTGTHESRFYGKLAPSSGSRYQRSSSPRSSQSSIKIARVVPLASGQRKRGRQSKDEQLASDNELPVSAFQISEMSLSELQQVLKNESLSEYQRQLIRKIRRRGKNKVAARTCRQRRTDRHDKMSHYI

[1] = molecular target: DNA repair and recombination protein RAD54-like (Homo sapiens, UniProt Q92698); test: inhibitors of human RAD54 branch migration, confirmation, biochemical, fluorescence, cherry-picked samples, dose series (AID 651657); type: functional
[2] = cytotoxicity toward NIH3T3 fibroblasts, dose response, counter-screen, cell-based, ATP luminescence, mouse fibroblasts (AID 2010); type: functional;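 note: cells exposed to compound for about 90 hours before reading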
[3] = inhibitors of intracellular T. cruzi replication, confirmation, NIH3T3 host cells, beta-gal luminescence (AID 2044); type: functional, cell-based;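 note: intracellular parasites grown in NIH/3T3 mouse fibroblasts as host cells; luminescent beta-galactosidase reporter signal from transgenic T. cruzi replicating inside host cells; inhibitors lower the luminescence signal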
[4] = molecular target: T2, DNA repair protein RAD52 homolog (Homo sapiens, UniProt P43351); type: functional, biochemical
T2 sequence (P43351 whole entry): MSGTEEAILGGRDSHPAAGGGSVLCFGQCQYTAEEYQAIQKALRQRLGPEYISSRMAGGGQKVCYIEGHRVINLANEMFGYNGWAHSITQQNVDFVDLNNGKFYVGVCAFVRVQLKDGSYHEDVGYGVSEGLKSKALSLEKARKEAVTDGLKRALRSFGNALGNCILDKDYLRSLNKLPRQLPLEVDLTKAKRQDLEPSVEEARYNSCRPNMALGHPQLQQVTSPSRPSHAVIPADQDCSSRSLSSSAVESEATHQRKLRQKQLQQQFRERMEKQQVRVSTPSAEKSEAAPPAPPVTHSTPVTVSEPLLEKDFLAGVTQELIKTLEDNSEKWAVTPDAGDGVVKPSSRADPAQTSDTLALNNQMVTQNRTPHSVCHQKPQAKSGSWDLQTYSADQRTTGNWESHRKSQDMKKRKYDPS

[5] = molecular target: FAD-linked sulfhydryl oxidase ALR (Homo sapiens, UniProt P55789); test: inhibitors of human ALR sulfhydryl oxidase, dose response, biochemical, H2O2 detection, luminescence, cherry-pick (AID 493248)
[6] = molecular target: T3, High affinity choline transporter 1 (Homo sapiens, UniProt Q9GZV3); test: CHT inhibitors, dose response, cell-based, 5-point CRC, membrane potential dye (AID 504840); type: functional
T3 sequence (Q9GZV3 whole entry): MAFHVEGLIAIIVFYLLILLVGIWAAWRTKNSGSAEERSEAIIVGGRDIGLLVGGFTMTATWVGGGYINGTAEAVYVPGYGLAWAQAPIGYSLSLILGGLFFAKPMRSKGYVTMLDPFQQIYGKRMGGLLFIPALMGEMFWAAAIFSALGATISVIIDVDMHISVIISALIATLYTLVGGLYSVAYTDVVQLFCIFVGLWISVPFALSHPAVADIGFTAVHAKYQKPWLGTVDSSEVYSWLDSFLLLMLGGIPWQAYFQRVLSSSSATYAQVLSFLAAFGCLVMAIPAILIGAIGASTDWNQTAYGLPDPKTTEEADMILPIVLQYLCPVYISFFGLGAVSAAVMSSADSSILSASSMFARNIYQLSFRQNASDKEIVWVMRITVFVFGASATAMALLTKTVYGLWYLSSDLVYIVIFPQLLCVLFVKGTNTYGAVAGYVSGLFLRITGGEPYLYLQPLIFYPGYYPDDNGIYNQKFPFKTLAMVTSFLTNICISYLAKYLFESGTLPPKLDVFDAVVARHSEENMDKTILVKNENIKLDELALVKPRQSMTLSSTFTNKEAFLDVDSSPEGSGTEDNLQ

[7] = molecular target: T3, High affinity choline transporter 1; test: CHT inhibitors, dose response, cell-based, 10-point CRC, membrane potential dye (AID 588401); type: functional;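 note: membrane potential dye fluorescence of choline-evoked depolarization via CHT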
[8] = molecular target: T4, Apoptotic protease-activating factor 1 (Homo sapiens, UniProt O14727); test: SAR analysis of small molecule inhibitors of Apaf-1 in a Fluorescent assay.; type: functional; conditions: read-out: IC50_Mean
T4 sequence (O14727 whole entry): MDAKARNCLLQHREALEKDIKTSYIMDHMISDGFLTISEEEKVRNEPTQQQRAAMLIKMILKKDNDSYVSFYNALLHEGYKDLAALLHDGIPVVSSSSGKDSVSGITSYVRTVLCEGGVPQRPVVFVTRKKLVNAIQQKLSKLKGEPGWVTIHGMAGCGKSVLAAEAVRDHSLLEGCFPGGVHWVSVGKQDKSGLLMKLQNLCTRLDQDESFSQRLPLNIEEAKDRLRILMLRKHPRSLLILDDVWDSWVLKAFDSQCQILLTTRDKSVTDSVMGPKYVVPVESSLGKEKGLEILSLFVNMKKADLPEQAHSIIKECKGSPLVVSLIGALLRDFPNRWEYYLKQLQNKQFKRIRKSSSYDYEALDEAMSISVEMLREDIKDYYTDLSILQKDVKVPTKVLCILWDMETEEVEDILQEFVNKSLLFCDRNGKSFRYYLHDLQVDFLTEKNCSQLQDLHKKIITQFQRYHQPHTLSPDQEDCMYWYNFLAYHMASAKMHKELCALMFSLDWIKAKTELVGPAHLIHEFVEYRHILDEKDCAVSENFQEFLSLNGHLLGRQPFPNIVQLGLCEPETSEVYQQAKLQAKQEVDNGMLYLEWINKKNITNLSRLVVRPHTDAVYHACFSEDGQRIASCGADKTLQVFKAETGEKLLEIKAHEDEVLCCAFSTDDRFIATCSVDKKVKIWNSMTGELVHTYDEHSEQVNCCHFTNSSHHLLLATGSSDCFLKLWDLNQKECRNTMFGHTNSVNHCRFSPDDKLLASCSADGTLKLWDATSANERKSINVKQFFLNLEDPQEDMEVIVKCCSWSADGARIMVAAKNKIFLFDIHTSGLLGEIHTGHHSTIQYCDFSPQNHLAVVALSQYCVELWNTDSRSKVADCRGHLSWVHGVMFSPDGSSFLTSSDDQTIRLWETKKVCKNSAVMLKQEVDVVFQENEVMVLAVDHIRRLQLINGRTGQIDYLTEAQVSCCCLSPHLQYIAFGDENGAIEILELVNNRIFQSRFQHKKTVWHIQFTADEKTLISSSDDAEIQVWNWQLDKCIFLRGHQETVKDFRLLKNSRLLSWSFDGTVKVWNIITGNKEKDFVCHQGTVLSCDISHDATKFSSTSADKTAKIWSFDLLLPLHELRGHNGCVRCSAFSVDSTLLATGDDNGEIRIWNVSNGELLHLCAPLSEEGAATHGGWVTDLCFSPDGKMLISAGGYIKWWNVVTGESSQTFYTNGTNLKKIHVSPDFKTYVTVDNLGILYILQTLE

Beta Lactamase [9] = molecular target: T5, Beta Lactamase (Pseudomonas aeruginosa, UniProt Q932Y6); test: beta-lactamase reporter inhibitor potency, dose response, artefact control for NOD2-RIPK2 interaction inhibitor project, BLA reporter cells, FRET fluorescence (AID 651552); type: functional, cell-based
[10] = Fluorescence-based cell-based high throughput dose response assay for inhibitors of the interaction of nucleotide-binding oligomerization domain containing 2 (NOD2) and the receptor-interacting serine-threonine kinase 2 (RIPK2).; type: functional; conditions: Homo sapiens
CHO = test: cytotoxicity in TLR9-MyD88 CHO cells, dose response, cytotoxicity control for TLR9-MyD88 binding inhibitor project, cell-based, luminescence (AID 588339); type: functional, hamster; conditions: Cricetulus griseus;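 note: CHO cells stably coexpressing TLR9 and MyD88 fusions from primary screen; compound exposure lasted 48 hours before viability readout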
Beta Lactamase [11] = molecular target: T5, Beta Lactamase; test: beta-lactamase reporter inhibitor potency, dose response, artefact control for TLR9-MyD88 binding inhibitor project, BLA reporter cells, FRET fluorescence (AID 588341); type: cell-based;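 note: cell based assay in CHO-K1 cells stably expressing beta-lactamase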
[12] = miR-122 activators in hepatoma reporter cells, dose response, cell-based, Huh7 psiCHECK-miR122, Renilla luciferase, cherry-picked (AID 651956); type: functional;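 note: huh7 hepatoma cells stably carrying a psiCHECK-2 miR-122 sensor plasmid; renilla luciferase signal reporting endogenous miR-122 activity after 48 h compound exposure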
[13] = molecular target: Ras and Rab interactor 1/Tyrosine-protein kinase ABL1 (Homo sapiens, UniProt P00519+Q13671); type: functional;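 note: biochemical TR-FRET dose-response test measuring inhibition of binding between Rin1 and Abl proteins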
[14] = molecular target: Photoreceptor-specific nuclear receptor (Homo sapiens, UniProt Q9Y5X4); type: functional, cell-based;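 note: CHO-S cells with Gal4-NCOR and VP16-NR2E3 two-hybrid luciferase reporter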
Large T antigen = Large T antigen (Simian virus 40, UniProt P03070); type: functional, Betapolyomavirus macacae;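 note: Confirmatory-stage PubChem screen for compounds that inhibit SV40 T antigen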
[15] = molecular target: Hepatocyte nuclear factor 4-alpha (Homo sapiens, UniProt P41235); type: functional, cell-based;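 note: biochemical luminescence-based dose-response counterscreen measuring inhibition of HNF4 dimerization, run alongside a screen for blockers of ABHD5–perilipin-5 interaction; split luciferase complementation of HNF4 fusion proteins in cell lysate measuring dimerization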
Melanocortin receptor 4 = Melanocortin receptor 4 (Homo sapiens, UniProt P32245); type: functional, cell-based;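 note: Cell-based assay with luminescence read-out, confirmatory dose-response testing for agonist activity of biased ligands at MC4R; human U2OS cells with tagged receptor and beta-arrestin; potency of agonists that increase receptor coupling to beta-arrestin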
[16] = growth suppression of PTEN-null colon cells, dose response, cell-based, HCT116 PTEN knockout (AID 1047); type: functional;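 note: HCT116 colon tumor cells with PTEN knocked out; cells exposed to compound for 60 hours before readout; potency for loss of cell viability measured by luminescence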
H9c2 = test: cells; type: functional, cell-based; conditions: Rattus norvegicus, H9c2, Myocardium;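 note: confirmatory concentration-response retest of ultra-high-throughput screening hits for modulation of myocardial damage; cell death induced by hydrogen peroxide oxidative stress; compound pretreatment for 60 min then peroxide exposure for 2 h; potency is for protecting the cells against peroxide damage rather than for killing them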
Interleukin-8 [17] = molecular target: T6, Interleukin-8 (Homo sapiens, UniProt P10145); test: Dose Response confirmation of uHTS small molecule hits for cystic fibrosis induced NFkb Inhibitors in a PAF-induced IL8 counterscreen.; type: functional; conditions: read-out: IC50_Mean
T6 sequence (P10145 whole entry): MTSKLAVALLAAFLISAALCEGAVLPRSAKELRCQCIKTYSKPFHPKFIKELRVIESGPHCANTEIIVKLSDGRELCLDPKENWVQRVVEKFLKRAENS

Interleukin-8 [18] = molecular target: T6, Interleukin-8; test: Dose Response confirmation of uHTS small molecule hits for cystic fibrosis induced NFkb Inhibitors in a TNFa-induced IL8 counterscreen.; type: functional; conditions: read-out: IC50_Mean
[19] = growth suppression of beta-catenin-knockout colon cells, dose response, cell-based, HCT116, human colon tumor (AID 1045); type: functional;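 note: HCT116 colon tumor cells with beta catenin knocked out; cells exposed to compound for 60 hours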
[20] = molecular target: Heat shock protein HSP 90-alpha (Homo sapiens, UniProt P07900); type: functional, organism-based
[21] = AlphaScreen signal interference compounds, dose response, artefact control for ARNT-TACC3 interaction inhibitor project, biochemical, luminescence, cherry-pick (AID 651705); type: functional;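 note: AlphaScreen bead proximity signal that flags compounds interfering with the detection technology; potency reflects signal decrease which marks the compound as an assay artifact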
[22] = enhancers of respiration in Yfh1-depleted yeast, dose response, Friedreich's ataxia, plus single-dose screen (AID 1465); type: functional;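 note: yeast depleted of Yfh1p frataxin homolog grown on glycerol needing respiration; WST-1 tetrazolium dye reduction as measure of cellular dehydrogenase metabolic activity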

Sequence of Hepatocyte nuclear factor 4-alpha (P41235 whole entry, the tested form may be a part): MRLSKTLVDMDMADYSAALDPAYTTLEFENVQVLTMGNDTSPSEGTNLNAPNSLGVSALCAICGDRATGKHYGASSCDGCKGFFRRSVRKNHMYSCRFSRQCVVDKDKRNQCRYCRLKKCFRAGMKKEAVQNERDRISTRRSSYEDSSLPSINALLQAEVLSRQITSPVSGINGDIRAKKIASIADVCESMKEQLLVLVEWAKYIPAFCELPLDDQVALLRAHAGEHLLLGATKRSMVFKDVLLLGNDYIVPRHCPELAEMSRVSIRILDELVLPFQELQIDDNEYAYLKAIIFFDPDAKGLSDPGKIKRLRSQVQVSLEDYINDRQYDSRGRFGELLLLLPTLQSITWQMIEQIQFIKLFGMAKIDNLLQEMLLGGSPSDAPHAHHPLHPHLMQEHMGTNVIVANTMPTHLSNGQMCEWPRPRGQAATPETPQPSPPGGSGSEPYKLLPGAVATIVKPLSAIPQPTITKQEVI
T5 sequence (Q932Y6 whole entry, the tested form may be a part): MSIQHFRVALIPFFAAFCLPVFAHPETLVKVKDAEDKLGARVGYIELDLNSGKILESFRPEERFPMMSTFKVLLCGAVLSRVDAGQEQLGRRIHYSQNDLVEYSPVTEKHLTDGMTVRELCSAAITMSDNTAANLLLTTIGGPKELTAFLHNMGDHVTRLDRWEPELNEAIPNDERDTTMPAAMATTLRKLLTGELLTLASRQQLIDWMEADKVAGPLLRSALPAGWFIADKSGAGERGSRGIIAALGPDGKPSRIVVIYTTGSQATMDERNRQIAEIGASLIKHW
Sequence of FAD-linked sulfhydryl oxidase ALR (P55789 whole entry): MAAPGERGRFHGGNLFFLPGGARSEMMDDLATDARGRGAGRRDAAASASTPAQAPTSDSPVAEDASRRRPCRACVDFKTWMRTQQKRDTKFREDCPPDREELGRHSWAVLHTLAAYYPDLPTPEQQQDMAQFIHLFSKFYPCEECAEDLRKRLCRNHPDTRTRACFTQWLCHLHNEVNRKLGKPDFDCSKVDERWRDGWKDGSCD
Sequence of DNA repair and recombination protein RAD54-like (Q92698 whole entry): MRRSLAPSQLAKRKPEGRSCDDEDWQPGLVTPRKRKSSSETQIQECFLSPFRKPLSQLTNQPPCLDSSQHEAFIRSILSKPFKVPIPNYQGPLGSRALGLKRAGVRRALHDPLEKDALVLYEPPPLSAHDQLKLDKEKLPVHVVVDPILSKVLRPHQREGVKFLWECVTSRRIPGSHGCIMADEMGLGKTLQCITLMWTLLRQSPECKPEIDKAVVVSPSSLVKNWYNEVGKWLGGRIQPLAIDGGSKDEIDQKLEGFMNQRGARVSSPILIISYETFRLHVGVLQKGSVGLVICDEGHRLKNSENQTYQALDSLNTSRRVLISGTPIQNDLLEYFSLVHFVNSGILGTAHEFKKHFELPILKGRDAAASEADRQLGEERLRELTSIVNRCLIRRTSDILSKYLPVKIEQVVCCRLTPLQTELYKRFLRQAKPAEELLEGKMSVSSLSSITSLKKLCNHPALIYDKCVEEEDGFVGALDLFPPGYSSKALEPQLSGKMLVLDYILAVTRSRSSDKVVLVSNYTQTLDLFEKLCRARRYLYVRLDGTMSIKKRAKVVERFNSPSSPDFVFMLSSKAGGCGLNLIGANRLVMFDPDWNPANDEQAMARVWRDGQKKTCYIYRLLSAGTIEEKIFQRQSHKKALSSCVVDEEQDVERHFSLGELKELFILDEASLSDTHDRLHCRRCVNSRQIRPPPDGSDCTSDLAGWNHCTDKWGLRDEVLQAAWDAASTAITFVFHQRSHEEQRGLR
Sequence of Melanocortin receptor 4 (P32245 whole entry): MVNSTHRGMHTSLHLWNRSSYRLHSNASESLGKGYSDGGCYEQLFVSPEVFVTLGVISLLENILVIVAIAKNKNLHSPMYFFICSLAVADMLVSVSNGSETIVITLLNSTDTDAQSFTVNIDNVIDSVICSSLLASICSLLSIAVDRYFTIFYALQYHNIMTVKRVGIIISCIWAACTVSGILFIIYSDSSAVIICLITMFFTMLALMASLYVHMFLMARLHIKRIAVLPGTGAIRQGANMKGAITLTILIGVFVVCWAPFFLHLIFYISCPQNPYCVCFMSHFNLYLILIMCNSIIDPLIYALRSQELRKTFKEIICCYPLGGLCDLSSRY
Sequence of Ras and Rab interactor 1/Tyrosine-protein kinase ABL1 (P00519 whole entry, the tested form may be a part): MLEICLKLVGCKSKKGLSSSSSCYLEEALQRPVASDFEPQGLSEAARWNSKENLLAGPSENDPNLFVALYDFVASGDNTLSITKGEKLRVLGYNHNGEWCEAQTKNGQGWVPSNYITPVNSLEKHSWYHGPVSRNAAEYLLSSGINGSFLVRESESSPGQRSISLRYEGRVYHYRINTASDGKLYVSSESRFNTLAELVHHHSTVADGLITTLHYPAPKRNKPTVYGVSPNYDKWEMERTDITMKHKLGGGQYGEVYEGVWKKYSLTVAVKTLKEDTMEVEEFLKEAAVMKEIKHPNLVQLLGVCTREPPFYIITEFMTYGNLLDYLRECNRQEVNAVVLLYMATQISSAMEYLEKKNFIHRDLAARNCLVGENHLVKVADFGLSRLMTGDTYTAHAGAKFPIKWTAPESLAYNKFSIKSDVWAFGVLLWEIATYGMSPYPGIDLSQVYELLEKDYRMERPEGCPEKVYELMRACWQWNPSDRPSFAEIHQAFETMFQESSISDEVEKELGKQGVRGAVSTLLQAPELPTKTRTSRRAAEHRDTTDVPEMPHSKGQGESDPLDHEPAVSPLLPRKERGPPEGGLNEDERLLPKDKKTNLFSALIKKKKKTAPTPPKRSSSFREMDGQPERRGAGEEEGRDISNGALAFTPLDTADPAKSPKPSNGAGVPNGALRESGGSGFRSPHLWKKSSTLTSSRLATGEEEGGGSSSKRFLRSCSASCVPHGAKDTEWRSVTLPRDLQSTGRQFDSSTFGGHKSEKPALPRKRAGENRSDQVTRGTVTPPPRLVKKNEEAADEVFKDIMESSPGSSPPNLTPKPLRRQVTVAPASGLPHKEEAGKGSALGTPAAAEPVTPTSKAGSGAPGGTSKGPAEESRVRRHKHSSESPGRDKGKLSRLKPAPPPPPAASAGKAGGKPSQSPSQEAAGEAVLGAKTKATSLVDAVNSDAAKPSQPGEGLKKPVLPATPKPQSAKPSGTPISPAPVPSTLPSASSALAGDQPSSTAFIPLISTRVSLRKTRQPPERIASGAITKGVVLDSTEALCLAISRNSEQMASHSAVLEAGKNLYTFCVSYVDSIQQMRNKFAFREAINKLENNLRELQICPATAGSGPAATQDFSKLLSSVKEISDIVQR
Sequence of Ras and Rab interactor 1/Tyrosine-protein kinase ABL1 (Q13671 whole entry, the tested form may be a part): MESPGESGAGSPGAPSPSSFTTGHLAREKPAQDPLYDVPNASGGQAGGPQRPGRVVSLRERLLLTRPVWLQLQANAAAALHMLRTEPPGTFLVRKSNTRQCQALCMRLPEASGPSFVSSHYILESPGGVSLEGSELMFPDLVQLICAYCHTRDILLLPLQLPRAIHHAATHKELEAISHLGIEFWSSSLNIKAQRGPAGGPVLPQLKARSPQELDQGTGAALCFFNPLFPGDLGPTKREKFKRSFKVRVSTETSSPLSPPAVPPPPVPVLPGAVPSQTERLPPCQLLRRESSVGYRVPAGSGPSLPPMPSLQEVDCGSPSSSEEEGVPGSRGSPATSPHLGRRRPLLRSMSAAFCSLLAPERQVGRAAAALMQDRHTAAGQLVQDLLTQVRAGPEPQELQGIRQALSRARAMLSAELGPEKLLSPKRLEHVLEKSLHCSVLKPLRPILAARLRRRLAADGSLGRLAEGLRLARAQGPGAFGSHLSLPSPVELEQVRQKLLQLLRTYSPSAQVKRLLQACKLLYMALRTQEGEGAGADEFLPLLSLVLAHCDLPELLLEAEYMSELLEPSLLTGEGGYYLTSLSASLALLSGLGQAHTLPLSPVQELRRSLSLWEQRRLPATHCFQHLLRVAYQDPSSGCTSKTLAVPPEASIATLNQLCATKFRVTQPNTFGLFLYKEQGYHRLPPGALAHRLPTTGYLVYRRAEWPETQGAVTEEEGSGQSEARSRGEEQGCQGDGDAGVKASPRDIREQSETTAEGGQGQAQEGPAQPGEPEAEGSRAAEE
Sequence of Photoreceptor-specific nuclear receptor (Q9Y5X4 whole entry, the tested form may be a part): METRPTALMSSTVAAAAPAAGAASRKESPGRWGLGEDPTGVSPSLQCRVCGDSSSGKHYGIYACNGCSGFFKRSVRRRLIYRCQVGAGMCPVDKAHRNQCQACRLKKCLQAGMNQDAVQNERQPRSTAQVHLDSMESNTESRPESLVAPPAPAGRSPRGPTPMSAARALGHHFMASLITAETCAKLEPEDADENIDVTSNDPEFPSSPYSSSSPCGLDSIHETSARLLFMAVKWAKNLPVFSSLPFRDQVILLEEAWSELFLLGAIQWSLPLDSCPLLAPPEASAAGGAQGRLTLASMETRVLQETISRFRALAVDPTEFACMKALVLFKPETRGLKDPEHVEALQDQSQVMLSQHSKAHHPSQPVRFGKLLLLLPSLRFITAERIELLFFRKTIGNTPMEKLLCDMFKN

Compound: Oc1cccc(Nc2c3ccccc3nc3ccccc23)c1
- IC50 (Protein skinhead-1): > 100 µM (inactive)
- AC50 [1]: 4.49 µM (active)
- EC50 [2]: 21.8 µM (active)
- EC50 [3]: 0.672 µM (active)
- AC50 [4]: 3.09 µM (active)
- AC50 [5]: 2.66 µM (active)

- AC50 [1]: 12.9 µM (active)
- AC50 [4]: 4.91 µM (active)
Compound: COc1ncccc1-c1cc2nc(NCCCN(C)C)n(C)c(=O)c2s1

- IC50 [6]: 8.58 µM (active)
- IC50 [7]: 6.48 µM (active)
Compound: Cc1ccc(C(C)NC(=O)C2CCCC2)cc1C (stereo not given)

- IC50 [8]: 13.7 µM (active)
Compound: CCN(CC)CCOC(=O)c1ccc(N/C=C(\C#N)c2nc(-c3cccs3)cs2)cc1

Compound: CCCCCN1C(=O)c2cc(OC)ccc2[C@@]2(C(=O)OCC)Cc3cc(Cl)ccc3[C@@H]12
- IC50 (Beta Lactamase [9]): 18.8 µM (inactive)
- IC50 [10]: 2.04 µM (active)

Compound: CC(=O)c1sc2nc(-c3ccc(C)cc3)c3c(c2c1N)CCCC3
- IC50 (CHO): 36.7 µM (inactive)
- IC50 (Beta Lactamase [11]): 3.73 µM (active)

Compound: C[C@@H]1CN([C@H](C)CO)S(=O)(=O)c2ccc(C3=CCCC3)cc2O[C@@H]1CN(C)C(=O)c1cnccn1
- AC50 [12]: 13.5 µM (active)

- IC50 [8]: 14.7 µM (active)
Compound: CCN(CC)CCOC(=O)c1ccc(N/C=C(\C#N)c2nc(-c3ccc(Br)cc3)cs2)cc1

Compound: Cc1ccc(-n2ncc(C(=O)Nc3cc(Cl)ccc3C)c2C2CCNCC2)cc1C
- AC50 [12]: 51.5 µM (active)

- IC50 [13]: > 73.5 µM (inactive)
Compound: Oc1nccc(N/N=C/c2ccccc2)n1

- IC50 [14]: 5.56 µM (active)
- IC50 (Large T antigen): 60.4 µM (active)
- AC50 [5]: 10.3 µM (active)
Compound: Cc1ccc(S(=O)(=O)N2[C@@H](c3ccc(Cl)cc3)C(C(=O)O)=CC[C@H]2c2ccc(C(C)C)cc2)cc1

Compound: C[N+]1(C)CCOC(O)(c2ccc(-c3ccc(C4(O)C[N+](C)(C)CCO4)cc3)cc2)C1 (stereo not given)
- AC50 [4]: 7.78 µM (active)
- IC50 [6]: 0.296 µM (active)
- IC50 [7]: 0.127 µM (active)

- IC50 [15]: 6.11 µM (active)
- EC50 (Melanocortin receptor 4): > 89.2 µM (inactive)
Compound: Cc1ccc(O)c(C(=O)/C=C/c2ccc3c(c2)OCCCO3)c1

Compound: CCOc1ccc(NCc2cc3c(C(C)(C)C)nn(-c4ccccc4)c3nc2O)cc1
- EC50 [16]: 9.36 µM (active)
- IC50 (H9c2): 24.2 µM (active)
- IC50 (Interleukin-8 [17]): 0.628 µM (active)
- IC50 (Interleukin-8 [18]): > 79 µM (inactive)
- EC50 [19]: 13.5 µM (active)
- AC50 [20]: 8.84 µM (active)

- IC50 [15]: 5.6 µM (active)
Compound: O=C(/C=C/c1ccc2c(c1)OCCCO2)c1ccccc1O

Compound: O=C(COc1nsnc1N1CCOCC1)N/N=C/c1ccccc1O
- EC50 [16]: 28.5 µM (active)
- AC50 [21]: 107 µM (active)
- EC50 [19]: 23.7 µM (active)

- IC50 (Interleukin-8 [17]): 3.4 µM (active)
- IC50 (Interleukin-8 [18]): > 79 µM (inactive)
Compound: Sc1nnc(-c2ccncc2)n1/N=C/C(Cl)=C\c1ccccc1
- EC50 [22]: > 100 µM (active)
